# According to US6737383B1, “Herbicidal oxadiazolidines” (priority 1999, dated 2004):
# What was measured:
# bermuda-grass = assay: Test D bermudagrass; assay type: in vivo, Cynodon dactylon; details: Preemergence, 0 to 100 scale
# Method in brief: (§1)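 Each weed species is planted in its own pot or compartment; preemergence doses go on the sandy loam surface within a day. The formulation is a surfactant-containing, non-phytotoxic solvent blend. Ratings come from visual comparison with untreated controls 14 to 21 days later, where 100 means complete control.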
# large crabgrass = assay: Test D large crabgrass; assay type: in vivo, Digitaria sanguinalis; details: Preemergence, 0 to 100 scale
# Method in brief: as §1
# Spanishneedles = assay: Test D Spanishneedles; assay type: in vivo, Bidens bipinnata; details: Preemergence, 0 to 100 scale; for Spanishneedles plant response rating: 0 no injury, 100 complete control
# Method in brief: as §1
# Green foxtail [1] = assay: Test D green foxtail; assay type: in vivo; details: Preemergence, 0 to 100 scale
# Method in brief: as §1
# common groundsel = assay: Test D common groundsel; assay type: in vivo, Senecio vulgaris; details: Preemergence, 0 to 100 scale
# Method in brief: as §1
# goosegrass = assay: Test D goosegrass; assay type: in vivo, Eleusine indica; details: Preemergence, 0 to 100 scale
# Method in brief: as §1
# sandbur = assay: Test D sandbur; assay type: in vivo, Cenchrus echinatus; details: Preemergence, 0 to 100 scale; for Sandbur plant response rating: 0 no injury, 100 complete control
# Method in brief: as §1
# Green foxtail [2] = assay: Test D green foxtail; assay type: in vivo; details: Preemergence, 0 to 100 scale; remark: listed apart in the source
# Method in brief: as §1
# purple nutsedge = assay: Test D purple nutsedge; assay type: in vivo, Cyperus rotundus; details: Preemergence, 0 to 100 scale; for Purple nutsedge plant response rating: 0 no injury, 100 complete control
# Method in brief: as §1
# surinam grass = assay: Test D surinam grass; assay type: in vivo, Brachiaria decumbens; details: Preemergence, 0 to 100 scale; for Surinam grass plant response rating: 0 no injury, 100 complete control
# Method in brief: as §1
# Johnson grass = assay: Test D Johnson grass; assay type: in vivo, Sorghum halepense; details: Preemergence, 0 to 100 scale
# Method in brief: as §1
# Alexandergrass = assay: Test D Alexandergrass; assay type: in vivo, Brachiaria plantaginea; details: Preemergence, 0 to 100 scale
# Method in brief: as §1
# dallisgrass = assay: Test D dallisgrass; assay type: in vivo, Paspalum dilatatum; details: Preemergence, 0 to 100 scale
# Method in brief: as §1
# common pursiane = assay: Test D common purslane; assay type: in vivo, Portulaca oleracea; details: Preemergence, 0 to 100 scale
# Method in brief: as §1
# common ragweed = assay: Test D common ragweed; assay type: in vivo, Ambrosia elatior; details: Preemergence, 0 to 100 scale
# Method in brief: as §1
# itchgrass = assay: Test D itchgrass; assay type: in vivo, Rottboellia exaltata; details: Preemergence, 0 to 100 scale
# Method in brief: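 Scoring used a 0–100 visual injury scale, with 0 meaning no effect and 100 complete control, assessed 14–21 days after application alongside untreated pots. Preemergence treatments went onto sandy loam surfaces of separately potted seeds within a day of sowing.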
# pitted morningglory = assay: Test D pitted morningglory; assay type: in vivo, Ipomoea lacunosa; details: Preemergence, 0 to 100 scale
# Method in brief: as §1
# [3] = Rate 64 g/ha, 0 no injury, 100 complete control
# [4] = Rate 125 g/ha, 0 no injury, 100 complete control
smiles,measurement,setting,value
CC(C)N(C(=O)n1oc(=O)n(C)c1=O)c1ccc(F)cc1 [Compound 138],"Plant response rating, Bermudagrass",bermuda-grass; [3],100
same,"Plant response rating, Bermudagrass",bermuda-grass; [4],100
same,"Plant response rating, Bermudagrass",bermuda-grass; Rate 250 g/ha,100
same,"Plant response rating, Bermudagrass",bermuda-grass; Rate 500 g/ha,100
same,"Plant response rating, Large crabgrass",large crabgrass; [3],100
same,"Plant response rating, Large crabgrass",large crabgrass; [4],100
same,"Plant response rating, Large crabgrass",large crabgrass; Rate 250 g/ha,100
same,"Plant response rating, Large crabgrass",large crabgrass; Rate 500 g/ha,100
same,Spanishneedles plant response rating,Spanishneedles; Rate 64 g/ha,10
same,Spanishneedles plant response rating,Spanishneedles; Rate 125 g/ha,10
same,"Plant response rating, Spanishneedles",Spanishneedles; Rate 250 g/ha,30
same,"Plant response rating, Spanishneedles",Spanishneedles; Rate 500 g/ha,75
same,"Plant response rating, Green foxtail",Green foxtail [1]; Rate 250 g/ha,100
same,"Plant response rating, Green foxtail",Green foxtail [1]; Rate 500 g/ha,100
same,"Plant response rating, Com. groundsel",common groundsel; [3],40
same,"Plant response rating, Com. groundsel",common groundsel; [4],100
same,"Plant response rating, Com. groundsel",common groundsel; Rate 250 g/ha,100
same,"Plant response rating, Com. groundsel",common groundsel; Rate 500 g/ha,100
same,"Plant response rating, Goosegrass",goosegrass; [3],98
same,"Plant response rating, Goosegrass",goosegrass; [4],100
same,"Plant response rating, Goosegrass",goosegrass; Rate 250 g/ha,100
same,"Plant response rating, Goosegrass",goosegrass; Rate 500 g/ha,100
same,Sandbur plant response rating,sandbur; Rate 64 g/ha,65
same,Sandbur plant response rating,sandbur; Rate 125 g/ha,65
same,"Plant response rating, Sandbur",sandbur; Rate 250 g/ha,98
same,"Plant response rating, Sandbur",sandbur; Rate 500 g/ha,100
same,Green foxtail plant response rating,Green foxtail [2]; [3],100
same,"Plant response rating, Green foxtail",Green foxtail [2]; [3],100
same,Green foxtail plant response rating,Green foxtail [2]; [4],100
same,"Plant response rating, Green foxtail",Green foxtail [2]; [4],100
same,"Plant response rating, Green foxtail",Green foxtail [2]; Rate 250 g/ha,100
same,"Plant response rating, Green foxtail",Green foxtail [2]; Rate 500 g/ha,100
same,Purple nutsedge plant response rating,purple nutsedge; Rate 64 g/ha,30
same,Purple nutsedge plant response rating,purple nutsedge; Rate 125 g/ha,65
same,"Plant response rating, Purple nutsedge",purple nutsedge; Rate 250 g/ha,75
same,"Plant response rating, Purple nutsedge",purple nutsedge; Rate 500 g/ha,80
same,Surinam grass plant response rating,surinam grass; Rate 64 g/ha,40
same,Surinam grass plant response rating,surinam grass; Rate 125 g/ha,85
same,"Plant response rating, Surinam grass",surinam grass; Rate 250 g/ha,98
same,"Plant response rating, Surinam grass",surinam grass; Rate 500 g/ha,100
same,"Plant response rating, Johnsongrass",Johnson grass; [3],40
same,"Plant response rating, Johnsongrass",Johnson grass; [4],65
same,"Plant response rating, Johnsongrass",Johnson grass; Rate 250 g/ha,100
same,"Plant response rating, Johnsongrass",Johnson grass; Rate 500 g/ha,100
same,"Plant response rating, Alexandergrass",Alexandergrass; [3],80
same,"Plant response rating, Alexandergrass",Alexandergrass; [4],80
same,"Plant response rating, Alexandergrass",Alexandergrass; Rate 250 g/ha,98
same,"Plant response rating, Alexandergrass",Alexandergrass; Rate 500 g/ha,100
same,"Plant response rating, Dallisgrass",dallisgrass; [3],100
same,"Plant response rating, Dallisgrass",dallisgrass; [4],100
same,"Plant response rating, Dallisgrass",dallisgrass; Rate 250 g/ha,100
same,"Plant response rating, Dallisgrass",dallisgrass; Rate 500 g/ha,100
same,"Plant response rating, C. purslane",common pursiane; [3],0
same,"Plant response rating, C. purslane",common pursiane; [4],30
same,"Plant response rating, C. purslane",common pursiane; Rate 250 g/ha,100
same,"Plant response rating, C. purslane",common pursiane; Rate 500 g/ha,100
same,"Plant response rating, C. ragweed",common ragweed; [3],10
same,"Plant response rating, C. ragweed",common ragweed; [4],30
same,"Plant response rating, C. ragweed",common ragweed; Rate 250 g/ha,60
same,"Plant response rating, C. ragweed",common ragweed; Rate 500 g/ha,100
same,"Plant response rating, Itchgrass",itchgrass; [3],30
same,"Plant response rating, Itchgrass",itchgrass; [4],80
same,"Plant response rating, Itchgrass",itchgrass; Rate 250 g/ha,100
same,"Plant response rating, Itchgrass",itchgrass; Rate 500 g/ha,100
same,"Plant response rating, P. morninglory",pitted morningglory; [3],65
same,"Plant response rating, P. morninglory",pitted morningglory; [4],65
same,"Plant response rating, P. morninglory",pitted morningglory; Rate 250 g/ha,65
same,"Plant response rating, P. morninglory",pitted morningglory; Rate 500 g/ha,65
